This is an account of results in US10689331B2, “IDO inhibitors” (Bristol-Myers Squibb Company, priority 2015, dated 2020).

T1 sequence (P14902 whole entry): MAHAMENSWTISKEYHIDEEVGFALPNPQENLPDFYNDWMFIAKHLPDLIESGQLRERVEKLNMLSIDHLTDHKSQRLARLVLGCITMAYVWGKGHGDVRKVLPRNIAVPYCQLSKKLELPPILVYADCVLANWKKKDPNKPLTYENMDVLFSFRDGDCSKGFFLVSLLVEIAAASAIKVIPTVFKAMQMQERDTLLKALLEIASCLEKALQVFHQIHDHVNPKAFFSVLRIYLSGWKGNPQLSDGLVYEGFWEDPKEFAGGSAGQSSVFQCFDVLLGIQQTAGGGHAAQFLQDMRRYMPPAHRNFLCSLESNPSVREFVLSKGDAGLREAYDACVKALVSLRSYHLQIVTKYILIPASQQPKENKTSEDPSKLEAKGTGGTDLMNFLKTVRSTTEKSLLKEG

The test concerns the target T1, human IDO1 (Homo sapiens, UniProt P14902).
T1 construct: expressed in transfected cells
As to the kind of experiment: HEK Human IDO-1 inhibition assay (kynurenine readout, Ehrlich reagent, absorbance 490 nm). As to conditions: human IDO1/HEK293 cells, incubated 20 hours with compound; 500 nM reference standard = 100% inhibition. Type of test: cell-based. The gist of the method:
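HEK293 cells stably expressing human IDO1, treated with compound for 20 h at 37 °C in phenol red-free RPMI/10% FBS. Kynurenine detected after TCA (0.2% final, 50 °C, 30 min) by Ehrlich reagent absorbance at 490 nm; IC50 normalised to 500 nM reference standard (100%) and DMSO (0%).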
As a reminder, the IC50 is the midpoint of a concentration-inhibition curve. Turning to `CC(C)CN(c1ccc(OCC(=O)O)cc1NC(=O)Nc1cc(F)cc(Cl)c1)C1CCCCC1` [Example 37, 2-(3-(3-(3-chloro-5-fluorophenyl)ureido)-4-(cyclo-hexyl(isobutyl)amino)phenoxy) acetic acid], the 50% inhibitory concentration (IC50) is no less than 100 nM. The result for `Cc1cc(F)ccc1NC(=O)Nc1cc(OCC(=O)O)ccc1N(CC(C)C)C1CCCCC1` [Example 38, 2-(4-(cyclohexyl(isobutyl)amino)-3-(3-(4-fluoro-2-methylphenyl)ureido)phenoxy) acetic acid] reads no less than 100 nM; that for `CC(C)CN(c1ccc(OCC(=O)O)cc1NC(=O)Nc1ccc(C#N)cc1)C1CCCCC1` [Example 39, 2-(3-(3-(4-cyanophenyl)ureido)-4-(cyclohexyl(isobutyl)amino)phenoxy)acetic acid], no less than 100 nM; that for `Cc1ccc(N(C)C(=O)Nc2cc(OCC(=O)O)ccc2N(CC(C)C)C2CCCCC2)cc1` [Example 40, 2-(4-(cyclohexyl(isobutyl)amino)-3-(3-methyl-3-(p-tolyl)ureido)phenoxy)acetic acid], no less than 100 nM.

With `CC(C)CN(c1ccc(OCC(=O)O)cc1NC(=O)N(C)c1ccc(F)cc1)C1CCCCC1` [Example 41, 2-(4-(cyclohexyl(isobutyl)amino)-3-(3-(4-fluorophenyl)-3-methyl-ureido)phenoxy)acetic acid], the IC50 was no less than 100 nM. For `CCOC(=O)COc1ccc(N(CC(C)C)C2CCCCC2)c(NC(=O)Nc2ccc(Cl)cc2F)c1` [Example 42, ethyl 2-(3-(3-(4-chloro-2-fluorophenyl)ureido)-4-(cyclohexyl(isobutyl)amino)phenoxy)acetate] the value was less than 5 nM. `CC(C)CN(c1ccc(OCC(=O)O)cc1NC(=O)Nc1ccc(C#N)cc1F)C1CCCCC1` [Example 43, 2-(3-(3-(4-cyano-2-fluorophenyl)ureido)-4-(cyclohexyl(isobutyl)amino)phenoxy)acetic acid]: the half-inhibitory concentration (IC50) was less than 5 nM. Turning to `CC(C)CN(c1ccc(OCC(=O)O)cc1Nc1nc2ccccc2o1)C1CCCCC1` [Example 44, 2-(3-(benzo[d]oxazol-2-ylamino)-4-(cyclohexyl(isobutyl)amino)phenoxy)acetic acid], the half-inhibitory concentration (IC50) was no less than 100 nM.

Turning to `CC(C)CN(c1ccc(OCC(=O)O)cc1N(C)C(=O)Nc1ccc(Cl)cc1F)C1CCCCC1` [Example 45], the half-maximal inhibitory concentration (IC50) is no less than 100 nM.

Consider `CC(C)CN(c1ccc(OCC(=O)NS(=O)(=O)N(C)C)cc1NC(=O)Nc1ccc(Cl)cc1F)C1CCCCC1` [Example 46, 2-(3-(3-(4-chloro-2-fluorophenyl)ureido)-4-(cyclohexyl(isobutyl)amino)phenoxy)-N—(N,N-dimethylsulfamoyl)acetamide], for which the IC50 is less than 5 nM. As for `CC(C)CN(c1ccc(OCC(=O)NS(=O)(=O)C2CC2)cc1NC(=O)Nc1ccc(Cl)cc1F)C1CCCCC1` [Example 47, 2-(3-(3-(4-chloro-2-fluorophenyl)ureido)-4-(cyclohexyl (isobutyl)amino)phenoxy)-N-(cyclopropyl-sulfonyl)acetamide], the half-maximal inhibitory concentration (IC50) is less than 5 nM. The result for `CC(C)CN(c1ccc(OCC(=O)NS(=O)(=O)C(C)(C)C)cc1NC(=O)Nc1ccc(Cl)cc1F)C1CCCCC1` [Example 48, N-(tert-butylsulfonyl)-2-(3-(3-(4-chloro-2-fluorophenyl)ureido)-4-(cyclohexyl(isobutyl)amino)phenoxy) acetamide] reads less than 5 nM. For `CC(C)CN(c1ccc(OCC(=O)NS(=O)(=O)c2cccs2)cc1NC(=O)Nc1ccc(Cl)cc1F)C1CCCCC1` [Example 49], the IC50 was less than 5 nM. For `Cc1cc(NC(=O)Nc2cc(OCC(=O)NS(=O)(=O)C3CC3)ccc2N(CC(C)C)C2CCCCC2)no1` [Example 50, 2-(4-(cyclohexyl(isobutyl)amino)-3-(3-(5-methyl-isoxazol-3-yl)ureido)phenoxy)-N-(cyclopropylsulfonyl)acetamide] the value was no less than 100 nM; for `CC(C)CN(c1ccc(OCC(=O)NS(=O)(=O)N(C)C)cc1NC(=O)Nc1ccccc1F)C1CCCCC1` [Example 51, 2-(4-(cyclohexyl(isobutyl)amino)-3-(3-(2-fluoro-phenyl)ureido)phenoxy)-N—(N,N-dimethylsulfamoyl)acetamide], less than 5 nM. With `Cc1ccc(NC(=O)Nc2cc(OCC(=O)NS(=O)(=O)N(C)C)ccc2N(CC(C)C)C2CCCCC2)cc1` [Example 52, 2-(4-(cyclohexyl(isobutyl)amino)-3-(3-(p-tolyl)ureido)phenoxy)-N—(N,N-dimethylsulfamoyl)acetamide], the IC50 was less than 100 nM.

With `Cc1ccc(NC(=O)Nc2cc(OCC(=O)NS(=O)(=O)C3CC3)ccc2N(CC(C)C)C2CCCCC2)cc1` [Example 53, 2-(4-(cyclohexyl(isobutyl)amino)-3-(3-(p-tolyl)ureido)phenoxy)-N-(cyclopropylsulfonyl)acetamide], the half-maximal inhibitory concentration (IC50) was less than 100 nM. For `CC(C)CN(c1ccc(OCC(=O)O)cc1NC(=O)Cc1ccc(Cl)c(F)c1)C1CCCCC1` [Example 54, 2-(3-(2-(4-chloro-3-fluorophenyl)acetamido)-4-(cyclohexyl(isobutyl)amino)phenoxy)acetic acid], the half-inhibitory concentration (IC50) is no less than 100 nM. On to `Cc1ccc(CC(=O)Nc2cc(OCC(=O)O)ccc2N(CC(C)C)C2CCCCC2)c(F)c1` [Example 55, 2-(4-(cyclohexyl(isobutyl)amino)-3-(2-(2-fluoro-4-methylphenyl)acetamido)phenoxy)acetic acid], for which the IC50 was less than 100 nM.

Consider `CC(C)CN(c1ccc(OCC(=O)O)cc1NC(=O)Cc1ccc(F)cc1F)C1CCCCC1` [Example 56, 2-(4-(cyclohexyl(isobutyl)amino)-3-(2-(2,4-difluorophenyl)acetamido)phenoxy)acetic acid], for which the IC50 was no less than 100 nM.

Turning to `CC(C)CN(c1ccc(OCC(=O)O)cc1NC(=O)Cc1ccc(F)cc1)C1CCCCC1` [Example 57, 2-(4-(cyclohexyl(isobutyl)amino)-3-(2-(4-fluorophenyl)acetamido)phenoxy)acetic acid], the concentration for half-maximal inhibition (IC50) was no less than 100 nM. For `CC(C)CN(c1ccc(OC(C)(C)C(=O)O)cc1NC(=O)Nc1ccc(Cl)cc1F)C1CCCCC1` [Example 91, 2-(3-(3-(4-chloro-2-fluorophenyl)ureido)-4-(cyclohexyl(isobutyl)amino)phenoxy)-2-methylpropanoic acid], the IC50 was less than 5 nM. For `Cc1ccc(NC(=O)Nc2cc(OC(C)(C)C(=O)O)ccc2N(CC(C)C)C2CCCCC2)cc1` [Example 92, 2-(4-(cyclohexyl(isobutyl)amino)-3-(3-(p-tolyl)ureido)phenoxy)-2-methylpropanoic acid], the half-maximal inhibitory concentration (IC50) is less than 5 nM. Consider `CC(C)CN(c1ccc(OC2(C(=O)O)CC2)cc1NC(=O)Nc1ccc(Cl)cc1F)C1CCCCC1` [Example 93, 1-(3-(3-(4-chloro-2-fluorophenyl)ureido)-4-(cyclohexyl(isobutyl)amino)phenoxy)cyclopropanecarboxylic acid], for which the half-inhibitory concentration (IC50) was less than 5 nM. Regarding `Cc1ccc(NC(=O)Nc2cc(OC3(C(=O)O)CC3)ccc2N(CC(C)C)C2CCCCC2)cc1` [Example 94, 1-(4-(cyclohexyl(isobutyl)amino)-3-(3-(p-tolyl)ureido)phenoxy)cyclopropanecarboxylic acid], the IC50 is less than 5 nM. Take `Cc1ccc(NC(=O)Nc2cc(OCc3nnn[nH]3)c(F)cc2N(CC(C)C)CC(C)C)cc1` [Example 95, 1-(5-((1H-tetrazol-5-yl)methoxy)-2-(diisobutylamino)-4-fluorophenyl)-3-(p-tolyl)urea]: the IC50 is less than 100 nM. Take `CC(C)CN(c1ccc(OCc2nnn[nH]2)cc1NC(=O)Nc1ccc(Cl)cc1F)C1CCCCC1` [Example 96, 1-(5-((1H-tetrazol-5-yl)methoxy)-2-(cyclohexyl(isobutyl)amino)phenyl)-3-(4-chloro-2-fluorophenyl)urea]: the 50% inhibitory concentration (IC50) was less than 5 nM.

Consider `CC(C)CN(c1ccc(OCc2nnn[nH]2)cc1NC(=O)Nc1ccccc1F)C1CCCCC1` [Example 97, 1-(5-((1H-tetrazol-5-yl)methoxy)-2-(cyclohexyl(isobutyl)amino)phenyl)-3-(2-fluorophenyl)urea], for which the IC50 is less than 5 nM. In the case of `CC(C)CN(c1ccc(OCC(=O)O)cc1NC(=O)Nc1ccc(Cl)cc1F)C1CCC(F)(F)CC1` [Example 98, 2-(3-(3-(4-Chloro-2-fluorophenyl)ureido)-4-((4,4-difluorocyclohexyl)(isobutyl)amino)-phenoxy)acetic acid], the IC50 is less than 5 nM. For `CC(C)CN(c1ccc(OCC(=O)O)cc1NC(=O)Nc1ccc(Br)cc1F)C1CCC(F)(F)CC1` [Example 99, 2-(3-(3-(4-Bromo-2-fluorophenyl)ureido)-4-((4,4-difluorocyclohexyl)(isobutyl)amino)-phenoxy)acetic acid], the IC50 was less than 5 nM. For `CCOc1ccc(NC(=O)Nc2cc(OCC(=O)O)ccc2N(CC(C)C)C2CCC(F)(F)CC2)cc1` [Example 100, 2-(4-((4,4-Difluorocyclohexyl)(isobutyl)amino)-3-(3-(4-ethoxyphenyl)ureido)phenoxy)acetic acid], the IC50 is no less than 100 nM.

Take `CC(C)CN(c1ncc(OCC(=O)O)cc1NC(=O)Nc1ccc(Cl)cc1F)C1CCCCC1` [Example 102, 2-((5-(3-(4-chloro-2-fluorophenyl)ureido)-6-(cyclohexyl(isobutyl)amino)pyridin-3-yl)oxy)acetic acid]: the 50% inhibitory concentration (IC50) is less than 5 nM. For the compound `CC(C)CN(c1ncc(OCC(=O)NS(=O)(=O)C2CC2)cc1NC(=O)Nc1ccc(Cl)cc1F)C1CCCCC1` [Example 103, 2-((5-(3-(4-chloro-2-fluorophenyl)ureido)-6-(cyclohexyl(isobutyl)amino)pyridin-3-yl)oxy)-N-(cyclopropylsulfonyl)acetamide], the half-inhibitory concentration (IC50) was less than 5 nM.

With `CC(C)CN(c1c(F)cc(OCC(=O)O)cc1NC(=O)Nc1ccc(Cl)cc1F)C1CCCCC1` [Example 104, 2-(3-(3-(4-chloro-2-fluorophenyl)ureido)-4-(cyclohexyl(isobutyl)amino)-5-fluorophenoxy)acetic acid], the IC50 was less than 5 nM.
